Patent EP3354264A1, “PROPHYLAXIS AND TREATMENT OF NEISSERIA GONORRHOEAE EYE INFECTION” (Kingston University Higher Education Corporation, priority 2017, dated 2018)
Values after ≈ are worked out from the molar mass of the structure shown. Where two headings read alike, the source gives them in different places.

Experiments:
[1] = tested on: Neisseria gonorrhoeae strain NCCP11945; assay: Growth inhibition screen of organic acids; type: cell-based; settings: strain NCCP11945, in vitro, 1 mM
Description: (§1) The well characterised N. gonorrhoeae strain NCCP11945 (Chung GT et al. (2008) Complete genome sequence of Neisseria gonorrhoeae NCCP11945. Journal of Bacteriology 190: 6035-6036) was used in the screening stage of this experiment. Eight isolates that were obtained from Public Health England from various European locations were used in the log reduction assays. All isolates were first cultured for 24 hours prior to testing by plating on GC solid medium (Oxoid Limited, Hampshire, UK) with Kellogg supplements and incubating at 37 °C, 5% CO2 (Kellogg DS, Jr., et al., (1963), J Bacteriol 85: 1274-1279).
(§2) A full list of all the organic acids tested in this study is in Table 1. The tested compounds include saturated and unsaturated fatty acids, monoglycerides, dicarboxylic acids, and fatty acid sodium salts. All compounds investigated were resuspended at a concentration of 100 mM in ethanol unless stated. All chemicals were obtained from Sigma-Aldrich (Poole, Dorset, UK).
Other organic acids were also active at this concentration, as noted in Table 1.

[2] = tested on: Neisseria gonorrhoeae strain NCCP11945; assay: Measurement of bactericidal action (log reduction); type: cell-based; settings: for log reduction at 1000 µM: Neisseria gonorrhoeae
Description: as §1, §2
(§3) Log reductions were done using the same method as in Bergsson et al., (1999), Antimicrob Agents Chemother 43: 2790-2792. Briefly, cells were suspended in GC broth (18 g/L GC Base (Oxiod, Limited) with added defined supplements) to an optical density of 0.3 at 520 nm which is approximately equivalent to 107 - 108 cells per millilitre (Macfarlane DE et al. (1980) Improved media for the culture of Neisseria gonorrhoeae. J Med Microbiol 13: 597-607). Five hundred microliters of the suspension was then added to 5 µl of the 100 mM stocks to give a final concentration of 1 mM. A negative control was also done to calculate the reduction in bacterial titre by adding 500 µl to 5 µl ethanol. The tubes were then mixed at room temperature for two minutes and immediately diluted in a 10 fold dilution series down to 10-4. The dilutions were plated by spreading 10 µl on a quarter of a plate and 100 µl of the neat solution was also plated. Plates were incubated at 37 °C for 48 hours. All samples were plated in duplicate. A reduction in viable cell count by more than 4 log10 was deemed to be bactericidal and was selected for further investigation. Bactericidal compounds were then tested at concentrations of 0.75, 0.5, and 0.25 mM (0.125 mM was also used in some potent compounds) to find the minimum bactericidal concentration. Additional testing at lower concentrations was also done on the eight clinical isolates of European origin.

[3] = tested on: panel of nine N. gonorrhoeae isolates (strain NCCP11945 and eight isolates from Public Health England); assay: Minimum bactericidal concentration by log reduction, panel of isolates; type: cell-based; settings: Neisseria gonorrhoeae, 2 min; lowest concentration tested giving an average 4 log10 reduction after two minute exposure; nine isolates; read-out: Minimum bactericidal concentration
Description: as §1, §3
As shown by the results in Table 3 which presents data on the log reductions of bacterial cell counts, against a panel of nine N. gonorrhoeae isolates (strain NCCP11945 and eight isolates from Public Health England), myristoleic acid (C14:1cΔ9), palmitoleic acid (C16:1cΔ9), linolenic acid (C18:3cΔ9,12,15), and monocaprin (C10) have a minimal bactericidal concentration, defined as the lowest concentration tested to give an average 4 log10 reduction in bacterial count after a two minute exposure, of 0.5 mM. Against a panel of nine N. gonorrhoeae isolates, lauric acid (C12:0), tridecanoic acid (C13:0), and sodium dodecanoate have a minimal bactericidal concentration of 0.75 mM.

[4] = in vitro; type: cell-based, bovine; settings: red blood cells, bovine RBCs, shaken 1 hour at room temperature
Description: Whole bovine blood was obtained from a local slaughter house (ABP, Guildford, Surrey, UK), adding 90 ml blood to 10 ml of 110 mM tri-sodium citrate anticoagulant. RBCs were isolated the same day. The RBCs were washed by three repeats of centrifugation (1,500 x g for 10 minutes) and resuspension in PBSG. Testing was done following European Union Reference Laboratory for alternatives to animal testing (EURL-ECVAM) guidelines (Lewis RW (2010) DB-ALM Protocol No. 99: Red blood cell (RBC) Test System. EURL ECVAM). The organic acids were made up in DMSO and diluted to a DMSO concentration maximum of 10 % (v/v). Samples were shaken at room temperature for 1 hour and then centrifuged at 10,000 rpm for 2 minutes. An aliquot of 750 µl of the supernatant was taken and absorbance at […] tested.

[5] = tested on: Neisseria gonorrhoeae strain NCCP11945; assay: Log reduction in artificial tear fluid; type: cell-based; settings: artificial tear fluid containing calcium chloride; two minute exposure; Figure 8
Description: Artificial tear fluid was made as in Mirejovsky et al., Optometry and Vision Science, (1991), 68: 858-864. […] Neisseria gonorrhoeae strain NCCP11945 was used in these experiments. As the previous log reductions, […] were suspended in GC broth. The cell suspension was centrifuged to remove the culture medium and the bacteria resuspended in the tear fluid. This was then added to the concentrated organic acid candidates. The cells were then counted again after two minute exposure to estimate any reduction due to the exposure to the fatty acid.
In a first experiment, the artificial tear fluid formulation includes calcium chloride to mimic the calcium in natural tears. As shown by the results in Figure 8, the anti-gonococcal properties of myristoleic acid (C14:1cΔ9), palmitoleic acid (C16:1cΔ9), linolenic acid (C18:3cΔ9,12,15), and monocaprin(C10) are retained in the artificial tear fluid formulation containing calcium chloride.
In a second experiment, calcium chloride was omitted from the artificial tear fluid formulation. The results in Figure 9 indicate that the anti-gonococcal properties of lauric acid (C12:0), tridecanoic acid (C13:0), and sodium dodecanoate were retained in the artificial tear fluid formulation without.

[6] = 2 min, strain NCCP11945, 1 mM, 2 minutes, read-out: Log reduction of Neisseria gonorrhoeae
[7] = NCCP11945, 2 min, read-out: Log reduction of Neisseria gonorrhoeae, strain NCCP11945, 1 mM, 2 minutes
[8] = strain NCCP11945, 1 mM, 2 minutes

| Structure (SMILES) | Inhibits growth of Neisseria gonorrhoeae [1] | also measured |
| --- | --- | --- |
| CCCCCCCC(=O)OCC(O)CO (racemic) [1-Octanoyl-rac-Glycerol C8, 1-Octanoyl-rac-Glycerol] | Yes |  |
| O=C(O)CCCCC(=O)O [Adipic acid] | No |  |
| CCCCC/C=C\C/C=C\C/C=C\C/C=C\CCCC(=O)O [Arachidonic acid 20:4 cΔ5,8,11,14, Arachidonic acid] | Yes |  |
| O=C(O)CCCCCCCC(=O)O [Azelaic acid] | No |  |
| CCCCCCCCCC(=O)O [Capric acid/Decanoic acid 10:0, Decanoic acid] | No |  |
| CCCCCCCC(=O)O [Caprylic/Octanoic acid 8:0, Octanoic acid] | No |  |
| CCCCCC/C=C\CCCCCCCCCC(=O)O [Cis-Vaccenic acid 18:1 cAll, Cis-Vaccenic acid] | No |  |
| CCCCCCCC/C=C/CCCCCCCC(=O)O [Elaidic acid 18:1 tΔ9, Elaidic acid] | Yes | log reduction at 1000 µM [2, 6]: 0.5 |
| CCCCCCCC/C=C\CCCCCCCCCCCC(=O)O [Erucic acid 22:1 cΔ13, Erucic acid] | Yes | log reduction at 1000 µM [2, 7]: 0 |
| CCCCCCCCCCCCCCCCC(=O)O [Heptadecylic acid 17:0, Heptadecylic acid] | No |  |
| CCCCCCCCCCCCCC(=O)OC(C)C [Isopropyl myristate] | No |  |
| CCCCCCCCCCCCCCCC(=O)OC(C)C [Isopropyl palmitate] | No |  |
| CCCCC/C=C\C/C=C\CCCCCCCC(=O)O [Linoleic acid 18:2 cΔ9,12, Linoleic acid] | Yes | log reduction at 1000 µM [2, 6]: 1.6 |
| CC/C=C\C/C=C\C/C=C\CCCCCCCC(=O)O [Linolenic acid 18:3 cΔ9,12,15, α-linolenic acid] | Yes | Inhibits growth of Neisseria gonorrhoeae ([1]; listed as linolenic acid): able to inhibit growth; log reduction at 1000 µM [2, 6]: > 6; Log reduction of Neisseria gonorrhoeae [2, 8]: able to cause a log reduction; MBC [3]: 500 µM (≈ 139 µg/mL); HC50 at 1 h ([4]; read-out: H50): 70 to 140 µM; HC50 at 1 h ([4]; read-out: H50 (mg/L)): 20 to 40 mg/L; anti-gonococcal properties in artificial tear fluid [5]: retained |
| CCCCCCCCCCCC(=O)OCC(O)CO (centres unmarked) [Monolaurin C12, Monolaurin] | Yes | log reduction at 1000 µM [2, 7]: 3.4 |
| CCCCCCCCCCCCCC(=O)OCC(O)CO (centres unmarked) [Monomyristin C14, Monomyristin] | Yes | log reduction at 1000 µM [2, 7]: 0.6 |

| Structure (SMILES) | Inhibits growth of Neisseria gonorrhoeae [1] | also measured |
| --- | --- | --- |
| CCCCCCCCCCCCCC(=O)O [Myristic acid 14:0, Myristic acid] | Yes | Log reduction of Neisseria gonorrhoeae [2, 8]: 1.5 |
| CCCCCCCC/C=C\CCCCCCCC(=O)O [Oleic acid 18:1 cΔ9, Oleic acid] | Yes | log reduction at 1000 µM [2, 6]: 1 |
| CCCCCCCCCCCCCCCC(=O)O [Palmitic acid 16:0, Palmitic acid] | No |  |
| CCCCCC/C=C\CCCCCCCC(=O)O [Palmitoleic acid 16:1 cΔ9, (9Z)-hexadec-9-enoic acid] | Yes | Inhibits growth of Neisseria gonorrhoeae ([1]; listed as palmitoleic acid): able to inhibit growth; log reduction at 1000 µM [2, 6]: > 6; Log reduction of Neisseria gonorrhoeae [2, 8]: able to cause a log reduction; MBC [3]: 500 µM (≈ 127 µg/mL); HC50 at 1 h ([4]; read-out: H50): 80 to 160 µM; HC50 at 1 h ([4]; read-out: H50 (mg/L)): 20 to 40 mg/L; anti-gonococcal properties in artificial tear fluid [5]: retained |
| CCCCCCCCCCCCCCC(=O)O [Pentadecylic acid 15:0, Pentadecylic acid] | Yes | log reduction at 1000 µM [2, 6]: 0.5 |
| O=C(O)CCCCCC(=O)O [Pimelic acid] | No |  |
| CCCCCC[C@@H](O)C/C=C\CCCCCCCC(=O)O [Ricinoleic acid] | Yes | log reduction at 1000 µM [2, 6]: 3.5 |
| O=C(O)CCCCCCCCC(=O)O [Sebacic acid] | No |  |
| CCCCCCCCCCCCCC(=O)[O-].[Na+] [Sodium myristate] | Yes | Log reduction of Neisseria gonorrhoeae [2, 8]: 0.5 |
| C/C=C/C=C/C(=O)O [Sorbic acid 6:2 tΔ2,4, Sorbic acid] | No |  |
| CCCCCCCCCCCCCCCCCC(=O)O [Stearic acid 18:0, Stearic acid] | No |  |
| O=C(O)CCCCCCC(=O)O [Suberic acid] | No |  |
| O=C(O)CCC(=O)O [Succinic acid] | No |  |
| CCCCCCCCCCC(=O)O [Undecanoic acid 11:0, Undecanoic acid] | Yes | log reduction at 1000 µM [2, 6]: 0.2 |
| CCCCCC/C=C/CCCCCCCCCC(=O)O [trans-Vaccenic acid 18:1 tΔ11, trans-Vaccenic acid] | No |  |
